{"source": "patent US6384065B1", "about": "“Spiro compounds or salts thereof and preventives/remedies for autoimmune diseases and AP-1 inhibitors containing the same” (Toyama Chemical Co., Ltd., priority 1998, dated 2002)", "key": {"[1]": {"tested_on": "transcription factor AP-1", "assay": "Luciferase assay (TPA-stimulated p(TRE)5TK-Luc reporter transfectant)", "format": "cell-based", "conditions": "Mus musculus, TPA stimulation 16 hours, Luc activity, read-out: Inhibition rate (%); for inhibition at 100 µg/mL: 100 μg/ml test compound; for inhibition at 30 µg/mL: 30 μg/ml test compound", "procedure": "(§1) A reporter plasmid was prepared according to the method of R. I. Scheinman et al. [Mol. Cell. Biol., Vol. 15, Pages 943-953 (1995)]. That is, a plasmid p(TRE)5TK-Luc was constructed by connecting a promoter of thymidine kinase (TK) at an upstream site of luciferase (Luc) gene which is a reporter gene and a 5-times repeated TRE sequence at a further upstream site thereof. The plasmid was co-transfected simultaneously with p3′SS plasmid (prepared by Stratagene Co.) by the electrotranspolation method onto mouse 3T3 fibroblast (ATCC: CCL-163) cultured in a Dulbecco's modified Eagle's medium (DMEM) containing 10% fetal calf serum (FCS). Then the cells were cultured in DMEM containing 10% FCS and 100 μg/ml of Hygromycin B. Using the expression of Hygromycin-resistant gene contained in p3′SS as an indicator, cell strains of the transfectant into which the objective plasmid had been introduced stably were selected. Furthermore in the test mentioned below, cell strains showing expression of Luc gene under stimulation of 12-O-tetradecanoylphorbol 13-acetate (TPA, prepared by Sigma Co.) were used, and DMEM containing 10% FCS and 100 μg/ml of Hygromycin B was used for the culture of cells.\nThe cells prepared above were suspended in culture medium, and plated 96 well-plate at 1×10^4 cells/0.1 ml. After culturing it overnight, 50 μl of test compounds solution and 40 μl of culture medium were added, and incubated. After one hour 10 μl of 200 ng/ml TPA solution was added and the culture was continued for an additional 16 hours to stimulate the cells. The end of cluture, the cells were recovered, and cell lysis solutions were obtained. The Luc activity of the cell lysates was measured with a chemilluminescent detection kit (Pica Gene; manufactured by Toyo Ink Co.). The suppressive effect of each test compound could be assessed as a decrease of Luc activity, and the inhibition rate (%) was calculated according to the following formula:\nInhibition rate (%)=(1−Luc activity of cells to which the compound is added/Luc activity of cells to which the compound is not added)×100\n(§2) The compounds of Example No. 1, 6(3), 6(5), 13, 15, 17, 18(1), 18(8), 20(1) and 20(2) were converted to sodium salts according to the method of Example 42, and then used for the assay."}, "[2]": {"tested_on": "mouse 3T3 fibroblast", "assay": "XTT assay (cytotoxicity test)", "format": "cell-based", "conditions": "16 hours culture, T/C %", "procedure": "as §1\nThe same culture plate as above was prepared, and test compound and TPA were added under the same conditions as above, after which a culture was carried out for 16 hours. The end of cluture, XTT reagent prepared according to the method of D. A. Scudievo [Cancer Res., Vol. 48, Pages 4827-4833 (1988)] was added and made to react for a prescribed period of time. Then, the amount of formazan formed by alive cells was analyzed by measuring absorbance at 450 nm using a micro plate reader. In this test, a decrease in absorbance is observed when the test compounds show a cytotoxicitic or a growth inhibitory activity. Cell viability (T/C %) was determined according to the following formula:\nCell Viability Rate (T/C %)=(Absorbance of well to which compound is added/Absorbance of well to which the compound was not added)×100\nas §2"}, "[3]": {"tested_on": "type II collagen-induced arthritis", "assay": "Type II collagen-induced arthritis in mice (arthritis score, joint-bone destruction score)", "format": "in vivo, DBA/1J mice", "conditions": "100 mg/kg orally once every day from day 21 to day 35, mean", "procedure": "The compound of Example 20 (1) was tested for the effect on type II collagen-induced arthritis, using 8 weeks old, male DBA/1J mice (Japan Charles River). Emulsion was prepared by mixing an equal volume of bovine type II collagen (prepared by Koken) in 0.1N acetic acid (2 mg/ml) and Freund's complete adjuvant (prepared by Nacalai Tesque). Arthritis was induced by intradermal injection of 0.2 ml (the quantity of antigen: 200 μg/head) of the emulsion into the skin of the tail root twice (day 0 and day 21). The test compound was suspended in 0.5% solution of methyl cellulose, and 100 mg/kg was orally administered once every day from day 21 to day 35. […] Severity of the arthritis was scored 0: no change, 1: only one or two swelling of the joints or slight swelling of the ankle or toes, 2: swelling and/or rubor in further joints, 3: extensive swelling of whole paw, and the maximum possible score for arthritis was 12 points. As to the severity of destruction of joints and bones, X ray photographs of four paws were taken (Softex), and severity of destruction in the second to fifth articulationes interphalangeae, first to fifth articulationes metacarpophalangeae and metatarsophalangeae, and calcaneus was scored by 0 or 1 in accordance with presence or absence of destruction, and the severity of destruction in the carpus and tarsal was scored by 0 to 3. […]"}}, "data": [{"smiles": "CC(C)c1ccc(OC2CCC3(CC2)SC[C@@H](C(=O)NCCC(=O)O)N3C(=O)c2ccccc2)cc1", "note": "(stereo partly drawn) [Example 29, 3-({[(3R)-4-benzoyl-8-(4-isopropylphenoxy)-1-thia-4-azaspiro[4.5]-decan-3-yl]carbonyl}amino)-propionic acid]", "values": [{"measurement": "inhibition at 100 µg/mL", "setting": "[1]", "result": 92, "unit": "%"}, {"measurement": "Cell viability (%)", "setting": "[2]; 100 μg/ml test compound", "result": 110, "unit": "%"}]}, {"smiles": "CC(C)c1ccc(OC2CCC3(CC2)SC(C)(C)[C@@H](C(=O)O)N3C(=O)c2ccccc2)cc1", "note": "(stereo partly drawn) [20 (2), (3R)-4-Benzoyl-8-(4-isopropylphenoxy)-2,2-dimethyl-1-thia-4-azaspiro[4.5]decane-3-carboxylic acid]", "values": [{"measurement": "inhibition at 100 µg/mL", "setting": "[1]", "result": 93, "unit": "%"}, {"measurement": "Cell viability (%)", "setting": "[2]; 100 μg/ml test compound", "result": 92, "unit": "%"}]}, {"smiles": "CC(C)c1ccc(OC2CCC3(CC2)SC(C)(C)[C@H](C(=O)O)N3C(=O)c2ccccc2)cc1", "note": "(stereo partly drawn) [20 (1), (3S)-4-Benzoyl-8-(4-isopropylphenoxy)-2,2-dimethyl-1-thia-4-azaspiro[4.5]decane-3-carboxylic acid]", "values": [{"measurement": "inhibition at 30 µg/mL", "setting": "[1]", "result": 72, "unit": "%"}, {"measurement": "Cell viability (%)", "setting": "[2]; 30 μg/ml test compound", "result": 98, "unit": "%"}, {"measurement": "Joint-bone destruction score", "setting": "[3]; X ray of four paws, control 20 ± 3", "result": "14 ± 3"}, {"measurement": "Arthritis score", "setting": "[3]; maximum score 12, control 10 ± 1", "result": "8 ± 1"}]}, {"smiles": "CC(C)c1ccc(OC2CCC3(CC2)SC[C@@H](C(=O)O)N3C(=O)c2cnccn2)cc1", "note": "(stereo partly drawn) [41 (4), (3R)-8-(4-Isopropylphenoxy)-4-(2-pyrazinylcarbonyl)-1-thia-4-azaspiro[4.5]decane-3-carboxylic acid]", "values": [{"measurement": "inhibition at 100 µg/mL", "setting": "[1]", "result": 96, "unit": "%"}, {"measurement": "Cell viability (%)", "setting": "[2]; 100 μg/ml test compound", "result": 82, "unit": "%"}]}, {"smiles": "CCOC(=O)[C@@H]1CSC2(CCC(Oc3ccc(C(C)C)cc3)CC2)N1C(=O)c1ccccc1", "note": "(stereo partly drawn) [Example 21, ethyl (3R)-4-benzoyl-8-(4-isopropylphenoxy)-1-thia-4-azaspiro[4.5]decane-3-carboxylate]", "values": [{"measurement": "inhibition at 30 µg/mL", "setting": "[1]", "result": 28, "unit": "%"}, {"measurement": "Cell viability (%)", "setting": "[2]; 30 μg/ml test compound", "result": 74, "unit": "%"}]}, {"smiles": "CC(C)CC=C1CCC2(CC1)SC(CC(=O)OC(C)C)C(=O)N2CC(=O)O", "note": "(centres unmarked) [Example 47, 2-[2-(2-isopropoxy-2-oxoethyl)-8-(3-methylbutylidene)-3-oxo-1-thia-4-azaspiro[4.5]decan-4-yl]-acetic acid]", "values": [{"measurement": "inhibition at 30 µg/mL", "setting": "[1]", "result": 47, "unit": "%"}, {"measurement": "Cell viability (%)", "setting": "[2]; 30 μg/ml test compound", "result": 83, "unit": "%"}]}, {"smiles": "CC(C)c1ccc(OC2CCC3(CC2)SC[C@@H](C(=O)O)N3C(=O)c2cnc3ccccc3c2)cc1", "note": "(stereo partly drawn) [41 (2), (3R)-8-(4-Isopropylphenoxy)-4-(3-quinolylcarbonyl)-1-thia-4-azaspiro[4.5]decane-3-carboxylic acid]", "values": [{"measurement": "inhibition at 100 µg/mL", "setting": "[1]", "result": 94, "unit": "%"}, {"measurement": "Cell viability (%)", "setting": "[2]; 100 μg/ml test compound", "result": 71, "unit": "%"}]}, {"smiles": "CC(C)CC=C1CCC2(CC1)SC(C)(C)[C@@H](C(=O)O)N2C(=O)CCC(C)C", "note": "(stereo partly drawn) [Example 44, (3R)-2,2-dimethyl-8-(3-methylbutylidene)-4-(4-methylpentanoyl)-1-thia-4-azaspiro[4.5]decane-3-carboxylic acid]", "values": [{"measurement": "inhibition at 30 µg/mL", "setting": "[1]", "result": 62, "unit": "%"}, {"measurement": "Cell viability (%)", "setting": "[2]; 30 μg/ml test compound", "result": 75, "unit": "%"}]}, {"smiles": "CCN(CC)C(=O)c1ccc(C(=O)N2[C@H](C(=O)O)CSC23CCC(Oc2ccc(C(C)C)cc2)CC3)cc1", "note": "(stereo partly drawn) [41 (6), (3R)-4-{4-[(Diethylamino)carbonyl]benzoyl}-8-(4-isopropylphenoxy)-1-thia-4-azaspiro[4.5]decane-3-carboxylic acid]", "values": [{"measurement": "inhibition at 100 µg/mL", "setting": "[1]", "result": 49, "unit": "%"}, {"measurement": "Cell viability (%)", "setting": "[2]; 100 μg/ml test compound", "result": 97, "unit": "%"}]}, {"smiles": "COc1ccc(C(=O)N2[C@H](C(=O)O)CSC23CCC(Oc2ccc(C(C)C)cc2)CC3)cc1", "note": "(stereo partly drawn) [41 (5), (3R)-8-(4-Isopropylphenoxy)-4-(4-methoxybenzoyl)-1-thia-4-azaspiro[4.5]decane-3-carboxylic acid]", "values": [{"measurement": "inhibition at 100 µg/mL", "setting": "[1]", "result": 94, "unit": "%"}, {"measurement": "Cell viability (%)", "setting": "[2]; 100 μg/ml test compound", "result": 90, "unit": "%"}]}, {"smiles": "Cc1nc(C(=O)N2[C@H](C(=O)O)CSC23CCC(Oc2ccc(C(C)C)cc2)CC3)cs1", "note": "(stereo partly drawn) [41 (3), (3R)-8-(4-Isopropylphenoxy)-4-[(2-methyl-1,3-thiazol-4-yl)carbonyl]-1-thia-4-azaspiro[4.5]decane-3-carboxylic acid]", "values": [{"measurement": "inhibition at 100 µg/mL", "setting": "[1]", "result": 80, "unit": "%"}, {"measurement": "Cell viability (%)", "setting": "[2]; 100 μg/ml test compound", "result": 97, "unit": "%"}]}, {"smiles": "CC(C)c1ccc(OC2CCC3(CC2)SC[C@@H](C(=O)O)N3C(=O)c2ccc[nH]2)cc1", "note": "(stereo partly drawn) [Example 40, (3R)-8-(4-isopropylphenoxy)-4-(1H-2-pyrrolylcarbonyl)-1-thia-4-azaspiro[4.5]decane-3-carboxylic acid]", "values": [{"measurement": "inhibition at 100 µg/mL", "setting": "[1]", "result": 91, "unit": "%"}, {"measurement": "Cell viability (%)", "setting": "[2]; 100 μg/ml test compound", "result": 108, "unit": "%"}]}]}
